Experiment [1] addresses GDP-bound KRAS wild-type protein (Homo sapiens, UniProt P01116). As to the kind of experiment: Binding to KRAS by surface plasmon resonance (SPR), dissociation constant KD. An outline of the steps: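 Recombinant RAS proteins bearing a biotinylated Avi tag and loaded with GDP served as the captured ligand, recaptured fresh every cycle. Binding responses were referenced to an uncoated surface and a buffer-only blank cycle. Dissociation constants were obtained by 1:1 model fitting at 30°C.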
In general terms: In SPR one partner is held on a chip, and binding of the other changes the refractive index at the surface.

Experiment [2] addresses GDP-bound NRAS wild-type protein (Homo sapiens, UniProt P01111). As to the kind of experiment: Binding to NRAS by surface plasmon resonance (SPR), KD and KD ratio to KRAS. A digest of the protocol: (§1)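 SPR, 30°C: Avi-biotin RAS·GDP captured via Biotin CAPture (~100–300 RU); running buffer HBS pH 7.4, 1 mM DTT, 10 mM MgCl2, 0.01% Tween 20, 10 µM GDP, 4% DMSO. Single-cycle kinetics, 100 µL/min, 75 s injections; 1:1 model → KD.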

A further experiment deals with HRAS wild-type protein (Homo sapiens, UniProt P01112). As to the kind of experiment: Binding to HRAS by surface plasmon resonance (SPR), KD and KD ratio to KRAS. An outline of the steps: as §1
Chain of HRAS wild-type protein (P01112 whole entry): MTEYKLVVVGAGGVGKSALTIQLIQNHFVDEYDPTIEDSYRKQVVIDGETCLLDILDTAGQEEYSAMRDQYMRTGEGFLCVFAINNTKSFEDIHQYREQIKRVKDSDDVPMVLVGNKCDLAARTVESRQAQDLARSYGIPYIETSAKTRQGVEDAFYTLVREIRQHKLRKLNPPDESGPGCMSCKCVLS
For experiment [3], the system named is human lung cancer strain NCI-H441. As to the kind of experiment: NCI-H441 cell proliferation inhibitory activity (CellTiter-Glo, 4 days). The format is cell-based. The settings on record: read-out: NCl-H441 IC50. An outline of the steps: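 Proliferation was scored by […] measured after the reagent was added to cultures kept at 37°C in 5% carbon dioxide.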
Background: Cellular ATP, detected with luciferase, serves as a proxy for viable cell number.

The mark [4] stands for this setting: ratio of KD for GDP-bound NRAS wild-type protein to KD for KRAS.
Setting [5] is: ratio of KD for HRAS wild-type protein to KD for KRAS.
Where [6] appears, read: Single Cycle Kinetics, 1:1 binding model.
[7] abbreviates: ratio of KD with respect to GDP-bound NRAS wild-type protein to KD with respect to KRAS.
Where [8] appears, read: ratio of KD with respect to HRAS wild-type protein to KD with respect to KRAS.
The mark [9] stands for this setting: 50% proliferation inhibitory concentration, four days.

Like-named read-outs stand apart in the source and are kept apart here.

From patent publication EP4603105A1, “PHARMACEUTICAL COMPOSITION CONTAINING CYCLIC COMPOUND HAVING SELECTIVE KRAS INHIBITORY EFFECT AGAINST HRAS AND NRAS” (CHUGAI SEIYAKU KABUSHIKI KAISHA, priority 2022, dated 2024) come the findings set out here.

Chain of GDP-bound NRAS wild-type protein (P01111 whole entry): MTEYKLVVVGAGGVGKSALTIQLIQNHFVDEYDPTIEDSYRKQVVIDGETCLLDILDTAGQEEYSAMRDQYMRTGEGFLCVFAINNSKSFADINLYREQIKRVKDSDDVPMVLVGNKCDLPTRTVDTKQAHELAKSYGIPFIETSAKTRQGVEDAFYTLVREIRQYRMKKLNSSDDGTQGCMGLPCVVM
Chain of GDP-bound KRAS wild-type protein (P01116 1-188 isoform P01116-2): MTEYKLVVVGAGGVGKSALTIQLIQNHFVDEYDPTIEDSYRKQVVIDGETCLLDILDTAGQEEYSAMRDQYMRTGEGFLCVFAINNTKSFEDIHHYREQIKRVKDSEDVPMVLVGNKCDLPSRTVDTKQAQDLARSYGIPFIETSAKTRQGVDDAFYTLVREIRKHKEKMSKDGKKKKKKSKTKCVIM

Compound `CCC[C@H]1C(=O)N[C@@H]([C@@H](C)CC)C(=O)N2CCCCC[C@H]2C(=O)N(C)[C@H]2C/C=C\CCN(C2=O)[C@@H](Cc2ccc(C(F)(F)F)cc2)C(=O)N(C)CC(=O)N[C@@H](CCc2ccc(C(F)(F)F)c(OC)c2)C(=O)N2C[C@H](OCC)C[C@H]2C(=O)N(C)C2(CCC2)C(=O)N(C)[C@@H](C2CCCC2)C(=O)N(C)[C@H](C(=O)N(C)C)CC(=O)N1C` [PP3276] registered a dissociation constant (Kd) in experiment [1] (Single Cycle Kinetics) of 4 nM. Further, in experiment [2] (setting [4]), the “NRAS /KRAS” value is “A (a compound having 10 or more and less than 20 is denoted as A)”. In addition, the “HRAS /KRAS” value on HRAS wild-type protein (setting [5]) was “A (a compound having 10 or more and less than 20 is denoted as A)”. Moreover, in experiment [3] (NCI-H441 cells, 4 days), the concentration for half-maximal inhibition (IC50) came to 105 nM.

Take `CCO[C@@H]1C[C@H]2C(=O)NC3(CC(C)(C)C3)C(=O)N(C)[C@@H](C3CCCC3)C(=O)N(C)[C@H](C(=O)N(C)CC)CC(=O)N(C)[C@@H]([C@H](C)OC)C(=O)N[C@@H]([C@@H](C)CC)C(=O)N3CCC[C@H]3C(=O)N(C)[C@H]3C/C=C\CCN(C3=O)[C@@H](Cc3ccc(C(F)(F)F)cc3)C(=O)N(C)CC(=O)N[C@@H](CCc3ccc(C(F)(F)F)c(Cl)c3)C(=O)N2C1` [PP3224]: binding in experiment [1] (Single Cycle Kinetics) was characterised by a dissociation constant (Kd) of 1.9 nM. Also, the “NRAS /KRAS” value in experiment [2] (setting [4]) was “A (a compound having 10 or more and less than 20 is denoted as A)”. At HRAS wild-type protein (setting [5]), the “HRAS /KRAS” value was “A (a compound having 10 or more and less than 20 is denoted as A)”. The IC50 in experiment [3] (NCI-H441 cells, 4 days) is 55.4 nM.

In turn, `CCCOC[C@H]1C(=O)N[C@@H]([C@@H](C)CC)C(=O)N(C)CC(=O)N(C)[C@H]2C/C=C\CCN(C2=O)[C@@H](CC2CCCCC2)C(=O)N(C)CC(=O)N[C@@H](CCc2cc(F)c(C(F)(F)F)c(F)c2)C(=O)N2C[C@H](OCC)C[C@H]2C(=O)NC2(CC(C)(C)C2)C(=O)N(C)[C@@H](C(CC)CC)C(=O)N(C)[C@H](C(=O)N(C)C)CC(=O)N1C` [PP2501] had a Kd in experiment [1] (1:1 binding model) of 1.8 nM. The “NRAS /KRAS” value in experiment [2] (setting [4]) is reported as “AA (a compound having 20 or more is denoted as AA)”. Moreover, the “HRAS /KRAS” value at HRAS wild-type protein (setting [5]) was “A (a compound having 10 or more and less than 20 is denoted as A)”. Besides, the IC50 in experiment [3] (NCI-H441 cells, 4 days) is 180 nM.

In experiment [1] (Single Cycle Kinetics), `CCC[C@H]1C(=O)N[C@@H]([C@@H](C)CC)C(=O)N(C)CC(=O)N(C)[C@H]2C/C=C\CCN(C2=O)[C@@H](Cc2ccc(C(F)(F)F)cc2)C(=O)N(C)CC(=O)N[C@@H](CCc2cc(F)c(C(F)(F)F)c(F)c2)C(=O)N2CC3(CC3)C[C@H]2C(=O)N(C)C2(CCC2)C(=O)N(C)[C@@H](C(CC)CC)C(=O)N(C)[C@H](C(=O)N(C)C)CC(=O)N1C` [PP3357] gave a Kd of 0.82 nM. Besides, the “NRAS /KRAS” value in experiment [2] (setting [4]) was “A (a compound having 10 or more and less than 20 is denoted as A)”. Moreover, the “HRAS /KRAS” value at HRAS wild-type protein (setting [5]) was “A (a compound having 10 or more and less than 20 is denoted as A)”. Besides, the IC50 in experiment [3] (NCI-H441 cells, 4 days) is 8.4 nM.

The compound `CCC[C@H]1C(=O)N[C@@H]([C@@H](C)CC)C(=O)N(C)CC(=O)N(C)[C@H]2C/C=C\CCN(C2=O)[C@@H](Cc2ccc(C(F)F)cc2)C(=O)N(C)CC(=O)N[C@@H](CCc2ccc(Cl)c(Cl)c2)C(=O)N2C[C@H](OC(C)C)C[C@H]2C(=O)NC2(CC(C)(C)C2)C(=O)N(C)[C@@H](C(CC)CC)C(=O)N(C)[C@H](C(=O)N(C)C)CC(=O)N1C` [PP2535] had a Kd in experiment [1] (1:1 binding model) of 0.54 nM. Moreover, the “NRAS /KRAS” value in experiment [2] (setting [4]) is given as “AA (a compound having 20 or more is denoted as AA)”. Besides, the “HRAS /KRAS” value on HRAS wild-type protein (setting [5]) is “A (a compound having 10 or more and less than 20 is denoted as A)”. Also, the IC50 in experiment [3] (NCI-H441 cells, 4 days) was 26.8 nM.

`CCCO[C@H](C)[C@@H]1NC(=O)[C@H](CC(C)C)N(C)C(=O)C[C@@H](C(=O)N(C)CC)N(C)C(=O)[C@H](C2CCCC2)N(C)C(=O)C2(CC(C)(C)C2)NC(=O)[C@@H]2C[C@H](C)CN2C(=O)[C@H](CCc2ccc(C(F)(F)F)c(OC)c2)NC(=O)CN(C)C(=O)[C@H](Cc2ccc(C)cc2)N2CC/C=C\C[C@@H](C2=O)N(C)C(=O)CN(C)C1=O` [PP2416] displayed a Kd in experiment [1] (1:1 binding model) of 0.29 nM. Further, the “NRAS /KRAS” value in experiment [2] (setting [4]) is “A (a compound having 10 or more and less than 20 is denoted as A)”. For the same compound, the “HRAS /KRAS” value on HRAS wild-type protein (setting [5]) was “B (a compound having 3 or more and less than 10 is denoted as B)”. Also, the IC50 in experiment [3] (NCI-H441 cells, 4 days) stood at 33.1 nM.

In turn, `CCO[C@@H]1C[C@H]2C(=O)NC3(CCC3)C(=O)N(C)[C@@H](C3CCCC3)C(=O)N(C)[C@H](C(=O)N(C)C)CC(=O)N(C)[C@@H](Cc3cccnc3)C(=O)N[C@@H]([C@@H](C)CC)C(=O)N(C)CC(=O)N(C)[C@H]3CCCCCN(C3=O)[C@@H](Cc3ccc(F)cc3)C(=O)N(C)CC(=O)N[C@@H](CCc3cc(F)c(C(F)(F)F)c(F)c3)C(=O)N2C1` [PP1196] had a Kd in experiment [1] (setting [6]) of 0.04 nM. For the same compound, in experiment [2] (setting [7]), the “NRAS /KRAS” value was “B (a compound having 3 or more and less than 10 is denoted as B)”. Besides, the “HRAS /KRAS” value at HRAS wild-type protein (setting [8]) was “B (a compound having 3 or more and less than 10 is denoted as B)”. Also, the IC50 in experiment [3] (setting [9]) came to 50.8 nM.

Take `CCC[C@H]1C(=O)N[C@@H]([C@@H](C)CC)C(=O)N2CCC[C@H]2C(=O)N(C)[C@H]2C/C=C\CCN(C2=O)[C@@H](Cc2ccc(C)cc2)C(=O)N(C)CC(=O)N[C@@H](CCc2cc(F)c(C(F)(F)F)c(F)c2)C(=O)N2CC[C@H](OC)[C@H]2C(=O)N(C)C2(CCC2)C(=O)N(C)[C@@H](C2CCCC2)C(=O)N(C)[C@H](C(=O)N(C)C)CC(=O)N1C` [PP3286]: in experiment [1] (Single Cycle Kinetics), the equilibrium dissociation constant (Kd) worked out at 0.15 nM. Besides, the “NRAS /KRAS” value in experiment [2] (setting [4]) is “A (a compound having 10 or more and less than 20 is denoted as A)”. In addition, the “HRAS /KRAS” value at HRAS wild-type protein (setting [5]) was “A (a compound having 10 or more and less than 20 is denoted as A)”. Also, in experiment [3] (NCI-H441 cells, 4 days), the IC50 is 11.4 nM.

The compound `CCO[C@@H]1C[C@H]2C(=O)NC3(CCC3)C(=O)N(C)[C@@H](C3CCCC3)C(=O)N(C)[C@H](C(=O)N(C)C)CC(=O)N(C)[C@@H](CC3CCCC3)C(=O)N[C@@H]([C@@H](C)CC)C(=O)N(C)CC(=O)N(C)[C@H]3C/C=C\CCN(C3=O)[C@@H](Cc3ccc(C(F)(F)F)cc3)C(=O)N(C)CC(=O)N[C@@H](CCc3ccc4sccc4c3)C(=O)N2C1` [PP1261] returned a Kd in experiment [1] (setting [6]) of 0.44 nM. Besides, the “NRAS /KRAS” value in experiment [2] (setting [7]) was “A (a compound having 10 or more and less than 20 is denoted as A)”. Moreover, on HRAS wild-type protein (setting [8]), the “HRAS /KRAS” value was “A (a compound having 10 or more and less than 20 is denoted as A)”. Besides, the IC50 in experiment [3] (setting [9]) worked out at 76.8 nM.

`CCCO[C@@H]1C[C@H]2C(=O)NC3(CCC3)C(=O)N(C)[C@@H](C3CCCC3)C(=O)N(C)[C@H](C(=O)N3CCOCC3)CC(=O)N(C)[C@@H](CC(C)C)C(=O)N[C@@H]([C@@H](C)CC)C(=O)N(C)CC(=O)N(C)[C@H]3CCCCN(C3=O)[C@@H](Cc3ccc(C(F)(F)F)cc3)C(=O)N(C)CC(=O)N[C@@H](CCc3cc(F)c(C(F)(F)F)c(F)c3)C(=O)N2C1` [PP1159] displayed a Kd in experiment [1] (setting [6]) of 0.036 nM. Besides, the “NRAS /KRAS” value in experiment [2] (setting [7]) is “C (A compound having a KD ratio of 0.1 or more and less than 3 is denoted as C)”. At HRAS wild-type protein (setting [8]), the “HRAS /KRAS” value is “B (a compound having 3 or more and less than 10 is denoted as B)”. For the same compound, in experiment [3] (setting [9]), the IC50 is 13 nM.

On to `CC[C@H](C)[C@@H]1NC(=O)[C@H](CC)N(C)C(=O)C[C@@H](C(=O)N(C)C)N(C)C(=O)[C@H](C2CCCC2)N(C)C(=O)C2(CCC2)NC(=O)[C@@H]2CC(F)(F)CN2C(=O)[C@H](CCc2cc(F)c(C(F)(F)F)c(F)c2)NC(=O)CN(C)C(=O)[C@H](Cc2ccc(C(F)(F)F)cc2)N2CC/C=C\C[C@@H](C2=O)N(C)C(=O)CN(C)C1=O` [PP1129], for which the Kd in experiment [1] (setting [6]) is 0.056 nM. Further, the “NRAS /KRAS” value in experiment [2] (setting [7]) is “A (a compound having 10 or more and less than 20 is denoted as A)”. Besides, the “HRAS /KRAS” value at HRAS wild-type protein (setting [8]) is “B (a compound having 3 or more and less than 10 is denoted as B)”. Besides, the IC50 in experiment [3] (setting [9]) was 10.2 nM.

For orientation: Kd means the concentration at which binding is half-saturated. The term IC50 denotes the midpoint of a concentration-inhibition curve.
